Measurements published in US6428983B1, “Histone deacetylase as target for antiprotozoal agents” (Merck & Co., priority 1995, dated 2002).

What was measured:
[1] = test system: HeLa cell histones; experiment: Histone acetylation state in HeLa cells (AUT gel electrophoresis); assay type: cell-based, human; conditions: HeLa cells treated 4 hrs, FIG. 1, relative to untreated cells
Method: About 2×10^7 HeLa cells growing at 37 C were treated with various compounds in the standard tissue culture medium (MEM containing 10% fetal calf serum) for 4 hrs. Cells were then removed from the flask by scraping in PBS in a total volume of about 10 mls. The cells were washed twice in PBS and resuspended in about 3 mls lysis buffer (Lysis buffer; 0.45% Nonidet® P-40, 10 mM tris, 10 mM NaCl, 5 mM MgCl, 0.1 mM EGTA, 0.1 mM PMSF). The suspension was mixed by vortexing for 10 seconds, incubated on ice for 15 minutes and nuclei were pelleted by centrifugation through a 1 ml cushion of 30% sucrose in lysis buffer at 1300×g for 10 minutes. The supernatant was discarded and the nuclei were then resuspended in 1.0 ml water. H2SO4 was added to a final concentration of 0.4M and the nuclear suspension was incubated on ice for 30 min. and then pelleted by centrifugation at 13,000×g for 10 minutes. The pellets were discarded, and ten volumes of ice cold acetone was added to the supernatant proteins and left overnight at −20° C. to precipitate soluble proteins. These proteins (predominantly histones) were pelleted by centrifugation at 10,000×g for 15 minutes at 4° C. and resuspended in AUT sample buffer (Sample buffer: 0.9M acetic acid, 0.02% w/v methyl green) in preparation for gel electrophoresis.
Acid urea triton (AUT) polyacrylamide gels were performed according to the methods of Alfageme et al (1974) J. Biol. Chem. 249, 3729, with modifications as described in Lennox and Cohen (Methods in Enzymology, 170, 532-549). For optimal resolution of HeLa cell and Plasmodium falciparum histones the separation gel contained 7.5M urea, 12% acrylamide, 0.38% Triton® X 100, 0.08% bis acrylamide, and 0.87M acetic acid. The loading gels contained 7.5M urea, 0.37% Triton X 100, 6% acrylamide, 0.04% bis acrylamide and 0.87M acetic acid. […] Gels were either stained with Coomassie Brilliant Blue R in 7% acetic acid, 20% methanol and then destained in 7% acetic acid and 20% methanol, or treated with Enlightening (from New England Nuclear), dried and radiolabel detected by fluorography.

[2] = test system: histone deacetylase (E. tenella extract); experiment: Histone deacetylase inhibition assay (Assay 1), E. tenella extract; assay type: biochemical, Eimeria tenella
Method: (§1) The standard assay contained in a total volume of 40 μL: 400 nmol HEPES-sodium, pH 7.4, 100 pmol of the substrate [AcGly-Ala-Lys(ε-^14C-Ac)-Arg-His-Arg-Lys(ε-^14C-Ac)-ValNH2] (see Kervabon et al (1979) FEBS Letters 106: 93-96) having a specific activity of approx. 114 mCi/mmol, and a source of histone deacetylase (HDAase) activity. The amount of HDAase added was chosen such that ≦20% of the substrate was consumed during the assay. The reaction was initiated by enzyme addition and allowed to proceed for 60 min at 41°. At 60 min, the reaction was terminated by the addition of a 50% slurry of Amberlite® AG 50W×4 cation exchange resin, sodium form (200-400 mesh) in 25 mM sodium acetate buffer, pH 4.2 (200 μL). The resin binds both remaining substrate and the (partially) deacetylated peptidyl products. The quenched reaction was then incubated for at least 30 min at 25° with occasional mixing, diluted with additional 25 mM sodium acetate buffer, pH 4.2 (760 μL; final volume 1000 μL), incubated for a minimum of an additional 30 min at 25° with occasional mixing, and then centrifuged at 10,000×g for 1 min. An aliquot of the supernatant (800 μL) containing the enzymatically released ^14C-acetate was removed, mixed with Aquasol 2 liquid scintillation counter (LSC) cocktail (10 mL), and counted in a Beckman model LS-5801 LSC. […]

[3] = test system: E. tenella; experiment: In vitro antiparasitic activity against E. tenella; assay type: cell-based, Eimeria tenella
Excerpt: (1) Generally following the procedure described in Crane, Schmatz, Stevens, Habbersett and Murray. Eimeria tenella: in vitro development in irradiated bovine kidney cells.(1984) Parasitology 88: 521-530.

[4] = test system: histone deacetylase (chicken liver lysate); experiment: Competitive binding assay with 3H-N-desmethoxyapicidin, chick liver S100 lysate; conditions: 3H-N-desmethoxyapicidin ligand
Method: Chick Liver. Livers from 3-5 three week old chickens are collected, rinsed in ice cold phosphate buffered saline (pH 7.4), diced into small pieces and rinsed again 3-4 times with ice cold 50 mM N-2-hydroxyethylpiperazine-N′-2-ethanesulfonic acid (HEPES) (pH 7.4) containing 0.1 mM phenylmethanesulfonyl fluoride (PMSF). The tissue is then resuspended in HEPES buffer, homogenized in a polytron homogenizer and centrifuged at 3000×g for 10 min. The supernatant is then subjected to an additional 100,000 g centrifugation for 1 hour. The pellet and the floating layer of lipid are discarded and the supernatant, referred to as the chick liver S100 fraction, is retained for binding assays. After estimating the protein concentration, the supernatant (S100) is aliquoted and frozen at −80 C.
(§2) Each assay tube contains a final volume of 1 ml with 1.3 ng/ml of ^3H-N-desmethoxyapicidin, 150-200 μg of the appropriate S100 supernatant and concentrations of potential HDA inhibitors from 0.001-10 μg/ml.
(§3) (i) labeled substrate. […]
(§4) Stock solutions of potential HDA inhibitors (ii) are diluted into 50 mM HEPES/Triton® buffer to achieve a final concentration of test compound in the range of 0.001-10 μM. ^3H-N-desmethoxyapicidin is added to a final concentration of 1.3 ng/ml. […] The filter is then dried and counted in scintillant.

[5] = test system: histone deacetylase (chicken liver extracts); experiment: Histone deacetylase inhibition assay (Assay 1), chicken liver extract; assay type: biochemical; conditions: Assay 1, chicken liver extracts
Method: as §1

[6] = test system: P. falciparum; experiment: In vitro antiparasitic activity against P. falciparum; assay type: cell-based
Excerpt: (2) Generally following the procedure described in Desjardins et al, “Quantitative Assessment of Antimalarial Activity In Vitro by a Semiautomated Microdilution Technique” Antimicrobial Agents and Chemotherapy 1979, 16:710-718.

[7] = molecular target: histone deacetylase (E. tenella lysate); experiment: Competitive binding assay with 3H-N-desmethoxyapicidin, E. tenella S100 lysate; conditions: 3H-N-desmethoxyapicidin ligand
Method: E. tenella oocysts. Approximately 2×10^9 E. tenella oocysts are suspended in 5 ml of PBS/0.1 mM PMSF, 4 mls of an equal mixture (vol/vol) of 4.0 and 1.0 mm glass beads is added. The glass bead-oocyst mixture is then shaken for 20 minutes to cause disruption of the oocysts. The efficiency of breakage is checked microscopically. The resulting homogenate is separated from the glass beads and centrifuged at 3000×g for 10 min. The supernatant is then subjected to an additional centrifugation at 100,000 g for 1 hr. The pellet is discarded and the supernatant, referred to as the E. tenella S100 fraction, is retained for binding assays. After estimating the protein concentration, the supernatant (S100) is aliquoted and frozen at −80 C.
as §2, §3, §4

[8] = test system: P. falciparum histones; experiment: Histone acetylation state in P. falciparum (14C acetate labeling, AUT gel); assay type: cell-based; conditions: infected red blood cells, 14C sodium acetate, 2 hours, FIG. 2
Method: Acid urea triton (AUT) polyacrylamide gels were performed according to the methods of Alfageme et al (1974) J. Biol. Chem. 249, 3729, with modifications as described in Lennox and Cohen (Methods in Enzymology, 170, 532-549). For optimal resolution of HeLa cell and Plasmodium falciparum histones the separation gel contained 7.5M urea, 12% acrylamide, 0.38% Triton® X 100, 0.08% bis acrylamide, and 0.87M acetic acid. The loading gels contained 7.5M urea, 0.37% Triton X 100, 6% acrylamide, 0.04% bis acrylamide and 0.87M acetic acid. Gels were run in 1M acetic acid. Gels were pre-electrophoresed at 350V for 1 hour and run at 450V for 3.5 hours. Gels were either stained with Coomassie Brilliant Blue R in 7% acetic acid, 20% methanol and then destained in 7% acetic acid and 20% methanol, or treated with Enlightening (from New England Nuclear), dried and radiolabel detected by fluorography.
Approximately 1×10^9 P. falciparum infected red blood cells (about 60% parasitized) were resuspended in 10 ml of RPMI 1640 containing various concentrations of test compounds and 250 μCi ^14C sodium acetate and incubated at 37° C. for 2 hours. The cells were then washed 3 time with PBS and histones were prepared as described below.
Histones were prepared according to the method of Cary et al (1994) Parasitology Research, 80, 255-258. […]

Structure (SMILES): C[C@@H]1NC(=O)[C@H]2CCCN2C(=O)[C@H](CCCCCC(=O)[C@@H]2CO2)NC(=O)[C@@H](C)NC1=O [HC-toxin]
- Hyperacetylation of HeLa cell histones (shift in histone gel profile) [1]: cause a distinct shift in the histone gel profiles

Structure (SMILES): CC(/C=C/C(=O)O)=C\[C@@H](C)C(=O)c1ccc(N(C)C)cc1 [trichostatic acid]
- IC50 in enzyme inhibition assay, E. tenella extract [2]: inactive
- minimum inhibitory concentration against E. tenella [3]: not active
- IC50 in binding assay, chicken liver lysate [4]: no activity
- IC50 in enzyme inhibition assay, chicken liver extract [5]: inactive
- IC50 against P. falciparum [6]: not active
- IC50 [7]: > 1000 nM
- IC50 in binding assay, E. tenella lysate [7]: no activity

Structure (SMILES): CC(/C=C/C(=O)NO)=C\[C@@H](C)C(=O)c1ccc(N(C)C)cc1 [trichostatin]
- Hyperacetylation of P. falciparum histones [8]: cause hyperacetylation
- Hyperacetylation of HeLa cell histones (shift in histone gel profile) [1]: cause a distinct shift in the histone gel profiles

Structure (SMILES): CCC(=O)CCCCC[C@@H]1NC(=O)[C@H]2CCCCN2C(=O)[C@H]([C@@H](C)CC)NC(=O)[C@H](Cc2cn(OC)c3ccccc23)NC1=O [apicidin, Apicidin]
- Hyperacetylation of P. falciparum histones [8]: cause hyperacetylation
- Hyperacetylation of HeLa cell histones (shift in histone gel profile) [1]: cause a distinct shift in the histone gel profiles
